Measured values taken from US5744462A, “Steroids useful as anti-cancer and anti-obesity agents” (Research Corporation Technologies, Inc., priority 1995, dated 1998).
Several values for one entry are separate records, joined by “and”; a condition that tells them apart may be missing. Identical values can stand only once. Entries after “also recorded” stand apart in the source; their conditions may differ.

How the values were obtained:
[1] = target: purified bovine adrenal G6PDH (Bos taurus, UniProt F1MMK2); assay: G6PDH inhibition test; format: biochemical; conditions: individual determinations; for inhibition at 10 µM / inhibition at 1 µM / inhibition at 0.1 µM: read-out: Percent Inhibition of G6PDH
Chain of purified bovine adrenal G6PDH (F1MMK2 31-70): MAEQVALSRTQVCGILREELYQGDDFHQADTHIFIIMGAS
Chain of purified bovine adrenal G6PDH (F1MMK2 101-575): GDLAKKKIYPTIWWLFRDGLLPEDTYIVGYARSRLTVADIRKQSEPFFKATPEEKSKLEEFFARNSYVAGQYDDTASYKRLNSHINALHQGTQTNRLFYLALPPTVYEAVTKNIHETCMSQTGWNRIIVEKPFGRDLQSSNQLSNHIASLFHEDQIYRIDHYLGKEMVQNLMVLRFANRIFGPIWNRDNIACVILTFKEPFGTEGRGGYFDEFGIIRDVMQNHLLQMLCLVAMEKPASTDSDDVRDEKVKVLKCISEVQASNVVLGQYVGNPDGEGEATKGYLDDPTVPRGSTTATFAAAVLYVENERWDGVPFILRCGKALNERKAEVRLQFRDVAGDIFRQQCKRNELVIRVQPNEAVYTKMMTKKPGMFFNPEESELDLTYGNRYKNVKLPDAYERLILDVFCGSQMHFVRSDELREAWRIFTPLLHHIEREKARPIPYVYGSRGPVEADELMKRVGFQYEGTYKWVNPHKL
Source text: The compound listed below are screened as inhibitors of purified bovine adrenal G6PDH activity as one predictor of cancer preventive action. The assay for testing the inhibition of purified bovine adrenal G6PDH is according to the procedure by Oertell, G. W. and Rebelein, I. in Biochem. Biophys. Acta, 184, 459-460 (1969).

[2] = system: mouse epidermal DNA (TPA stimulated 3H-thymidine incorporation); assay: TPA stimulation of 3H-thymidine incorporation in epidermis, topical steroid; format: in vivo, mouse (A/J); conditions: no steroid 66, TPA alone 174
Experimental: (§1) Tumor promoters, such as TPA, stimulate hyperplasia and DNA synthesis when applied to the skin, and it is believed that this stimulation is an important step in the enhancement of tumorigenesis.
Incorporation of ^3 H-thymidine into A/J mouse epidermal DNA was determined as described in Pashko, L. L., Schwartz, A. G., Abou-Gharbia, M. and Swern, D. (1981), Inhibition of DNA synthesis in mouse epidermis and breast epithelium by dehydroepiandrosterone and related steroids, Carcinogenesis, 2, 717-721. Values are mean±SD for 3 separately treated mice in each group 20 hours after TPA application. DHEA or testosterone was added topically in 0.2 ml acetone one hour before TPA addition.

mouse skin DNA = assay: (3H) DMBA binding to skin DNA; format: in vivo, mouse (A/J); conditions: for effect on 3H-DMBA binding to skin DNA: oral, mice, doses well below 400 mg/kg
[3] = Body weight and food consumption in the DMBA binding experiment; format: in vivo, mouse; conditions: two weeks of feeding
Experimental: Binding of [^3 H]DMBA to mouse skin DNA was determined as described in Pashko, L. L., and Schwartz, A. G. (1983), Effect of food restriction, dehydroepiandrosterone, or obesity on the binding of ^3 H-7,12-dimethylbenz(a)anthracene to mouse skin DNA, J. Gerontol., 38, 8-12. Values are mean±SD for 3 individual determinations, with pooled tissue from 2 mice used for each determination. DHEA or testosterone (400 ug in 0.2 ml acetone) was applied to the skin one hour before [^3 H]DMBA. The mean weight of the food restricted mice was 18.5±1.0 gm, n=6, of the ad libitum fed, 27.4±1.0 gm, n=6, of the ad libitum fed treated with DHEA, 28.2±0.9 gm, n=6, and of the ad libitum fed treated with testosterone, 28.3±0.9 gm, n=6, following two weeks of feeding. The average food consumed was, in gm/mouse/day, 2.2, 3.8, 3.8 and 4.0 for the food restricted, ad libitum fed, ad libitum fed plus DHEA, and ad libitum fed plus testosterone groups, respectively.

[4] = system: mouse epidermis (TPA stimulated 3H-thymidine incorporation); assay: TPA stimulation of 3H-thymidine incorporation in mouse epidermis, oral steroid; format: in vivo, mouse (male ICR)
Experimental: as §1
Male ICR mice were orally intubated with steroid suspended in sesame oil (0.5 ml/mouse) at the indicated dose. Mice not receiving steroid were given sesame oil alone. One hour later mice received topical application of TPA and 20 hours later the rate of ^3 H-thymidine incorporation into the epidermis was determined as described in Pashko, L. L., Schwartz, A. G., Abou-Gharbia, M., and Swern, D. (1981), Inhibition of DNA synthesis in mouse epidermis and breast epithelium by dehydroepiandrosterone and related steroids, Carcinogenesis, 2,-717-721.
Experimental conditions are the same as in Table 3.

[5] = Liver weight after three weeks of diet treatment; format: in vivo, mouse (female Balb/c); conditions: 0.25% of diet; for LIVER WEIGHT: control 0.057 ± 0.006, DHEA p < 0.05, clofibrate p < 0.002 vs control; for liver weight, in words: mice
Experimental: (§2) Female Balb/c mice were housed in polycarbonate cages (6/mice/cage) in animal quarters maintained at 24°±1° C. with 12 hours of light and 12 hours of dark each day. The mice were placed on a diet containing either DHEA, 8354, A, B clofibrate or with no addition. Three weeks later the mice were killed, the livers were perfused with cold saline, weighed, and 5% liver homogenates were prepared for the determination of catalase activity by the spectrophotometric method of Luck (H. Luck, in Method in Enzyme Analysis, H. U. Bergmeyer, Ed. (Verlag Chemie, Weinheim/Bergstrasse, Germany, 1965)). Total protein was measured by the method of Lowry, et al. (O. H. Lowry, N. J. Rosebrough, A. L. Farr, R. J. Randall, J. Biol. Chem., 193, 265 (1951)).

liver catalase = assay: Liver catalase activity after three weeks of diet treatment; format: in vivo, mouse (female Balb/c); conditions: for CATALASE ACTIVITY / catalase activity, in words: 0.25% of diet; for CATALASE ACTIVITY: control 31.1 ± 6.7, DHEA p < 0.05, clofibrate p < 0.001 vs control; for catalase activity, in words: mice
Experimental: as §2

[6] = Estrogenic / androgenic side-effects, general statements; conditions: in vivo
[7] = in vivo; cited from earlier work
[8] = Estrogenic and anti-estrogenic activity, uterine weight; format: in vivo, rat (female CD); conditions: 60 mg/kg s.c. for 3 days; control 2.02 ± 0.28; DHEA significantly greater than control, p < .001
Experimental: Estrogenic and Anti-Estrogenic Activity
Female CD rats, 26-27 days old, were injected subcutaneously for 3 days with one of the compounds of the present invention at 60 mg/kg in propylene glycol. Controls received propylene glycol alone. On the 4th day, the rats were killed and the uteri were dissected out and weighed.

[9] = Anti-obesity action, body weight, male A/J mice; format: in vivo, mouse (male A/J); conditions: 0.45% in diet
Experimental: Male A/J (5 weeks old) mice were obtained from the
Jackson Laboratory and were housed in polycarbonate cages (6
mice/cage) in animal quarters maintained at 24 ± 1° C. with 12
hours of light and 12 hours of darkness each day. One week
after arrival, the mice were placed on a diet containing
either DHEA, 8353, or without steroid. Animals were weighed

[10] = Table 3, oral 25 mg/kg, no steroid 70.2, TPA alone 154
[11] = Table 3, oral 50 mg/kg, no steroid 70.2, TPA alone 154
[12] = Table 3, oral 100 mg/kg, no steroid 70.2, TPA alone 154

Row | SMILES | Percent Inhibition of G6PDH ([1]; 10^-5 M) | inhibition at 10 µM ([1]; 10^-5 M) | Percent Inhibition of G6PDH ([1]; 10^-6 M) | inhibition at 1 µM ([1]; 10^-6 M) | Percent Inhibition of G6PDH ([1]; 10^-7 M) | inhibition at 0.1 µM ([1]; 10^-7 M) | effect on 3H-DMBA binding to skin DNA (mouse skin DNA) | LIVER WEIGHT [5] | liver weight, in words [5] | CATALASE ACTIVITY (liver catalase) | catalase activity, in words (liver catalase) | effect on liver (type of hepatomegaly) [7] | further results
1 | C[C@@H]1C[C@H]2[C@@H]3CC=C4CCCC[C@]4(C)[C@H]3CC[C@]2(C)C1=O [C] | 52% | 54% | 31% | 33% | 24% | 20% |  |  |  |  |  |  | 
2 | C[C@]12CC[C@H]3[C@@H](CCC4=CC(=O)CC[C@@]43C)[C@@H]1CC[C@@H]2O [testosterone] |  |  |  |  |  |  |  |  |  |  |  |  | SPECIFIC ACTIVITY, TPA stimulated 3H-thymidine incorporation ([2]; topical 100 ug): 128 ± 13 cpm/ug DNA; SPECIFIC ACTIVITY, TPA stimulated 3H-thymidine incorporation ([2]; topical 400 ug): 142 ± 5.9 cpm/ug DNA; SPECIFIC ACTIVITY, (3H) DMBA binding to skin DNA (mouse skin DNA; 400 ug topical one hour before DMBA, ad libitum fed 116 ± 5.2): 164 ± 8.4 cpm/ug DNA; effect on rate of binding of 3H-DMBA to skin DNA (mouse skin DNA; topical, in words (Table 4)): without inhibitory effect; mean body weight ([3]; topical 400 ug, ad libitum fed 27.4±1.0): 28.3±0.9 gm; average food consumed ([3]; ad libitum fed 3.8): 4.0 gm/mouse/day
3 | C[C@H]1C[C@H]2[C@@H]3CC=C4CCCC[C@]4(C)[C@H]3CC[C@]2(C)C1=O [D] | 47% | 44% | 20% | 13% |  |  |  |  |  |  |  |  | 
4 | C[C@]12CCCC[C@@H]1CC[C@@H]1[C@@H]2CC[C@]2(C)C(=O)[C@H](O)C[C@@H]12 [A] | 92% and 91% | 94% |  | 72% | 25% | 17% | inhibit ^3 H-DMBA binding to skin DNA | 0.058 ± 0.004 gm/gm body weight | no effect on liver weight; also recorded: neither increased liver weight | 42.3 ± 7.2 Units per mg protein | no effect on liver weight or catalase activity |  | SPECIFIC ACTIVITY, TPA stimulated 3H-thymidine incorporation [4, 10]: 77.4 ± 10.4 cpm/ug DNA; SPECIFIC ACTIVITY, TPA stimulated 3H-thymidine incorporation [4, 11]: 35.2 ± 1.8 cpm/ug DNA; SPECIFIC ACTIVITY, TPA stimulated 3H-thymidine incorporation [4, 12]: 8.1 ± 4.1 cpm/ug DNA; estrogenic and androgenic side-effects [6]: lacking the estrogenic and androgenic side-effects of DHEA
5 | C[C@]12CCCCC1=CC[C@@H]1[C@@H]2CC[C@]2(C)C(=O)[C@](C)(F)C[C@@H]12 [F] |  | 82% | 69% | 66% | 34% | 28% |  |  |  |  |  |  | 
6 | CCC1(c2ccccc2)C(=O)NC(=O)NC1=O [phenobarbital] |  |  |  |  |  |  |  |  |  |  |  | stimulate proliferation of smooth endoplasmic reticulum in liver cells and induce microsomal drug metabolizing enzymes | 
7 | CCOC(=O)C(C)(C)Oc1ccc(Cl)cc1 [Clofibrate, clofibrate, reference compound] |  |  |  |  |  |  |  | 0.084 ± 0.006 gm/gm body weight | increased liver weight; also recorded: hepatomegaly | 92.1 ± 8.9 Units per mg protein | stimulated catalase activity | Typical peroxisome proliferators | increase in liver catalase specific activity (liver catalase; 0.25%, vs control): threefold
8 | Clc1ccc(C(c2ccc(Cl)cc2)C(Cl)(Cl)Cl)cc1 [DDT] |  |  |  |  |  |  |  |  |  |  |  | stimulate proliferation of smooth endoplasmic reticulum in liver cells and induce microsomal drug metabolizing enzymes | 
9 | C[C@]12CCCC[C@@H]1CC[C@@H]1[C@@H]2CC[C@]2(C)C(=O)[C@H](F)C[C@@H]12 [B] |  | 96% | 84% | 82% |  | 36% | inhibit ^3 H-DMBA binding to skin DNA | 0.061 ± 0.002 gm/gm body weight | no effect on liver weight; also recorded: neither increased liver weight | 32.2 ± 6.0 Units per mg protein | no effect on liver weight or catalase activity |  | SPECIFIC ACTIVITY, TPA stimulated 3H-thymidine incorporation [4, 10]: 66.1 ± 9.8 cpm/ug DNA; SPECIFIC ACTIVITY, TPA stimulated 3H-thymidine incorporation [4, 11]: 25.6 ± 4.0 cpm/ug DNA; SPECIFIC ACTIVITY, TPA stimulated 3H-thymidine incorporation [4, 12]: 7.2 ± 3.8 cpm/ug DNA; estrogenic and androgenic side-effects [6]: lacking the estrogenic and androgenic side-effects of DHEA
10 | C[C@]12CCCCC1=CC[C@@H]1[C@@H]2CC[C@]2(C)C(=O)[C@H](O)C[C@@H]12 [Compound 8353] |  | 77% | 36% and 29% and 38% | 30% |  |  | inhibit ^3 H-DMBA binding to skin DNA |  |  |  |  |  | Mean Uterine Weight ± S.D. [8]: 2.15 ± 0.17 mg/100 gm body weight; SPECIFIC ACTIVITY, TPA stimulated 3H-thymidine incorporation ([4]; Table 8, 75 mg/kg, p.o.): 15.9 ± 2.4 cpm/ug DNA; SPECIFIC ACTIVITY, TPA stimulated 3H-thymidine incorporation ([4]; Table 8, 150 mg/kg, p.o.): 14.0 ± 1.1 cpm/ug DNA; SPECIFIC ACTIVITY, TPA stimulated 3H-thymidine incorporation ([4]; Table 8, 200 mg/kg, p.o.): 14.3 ± 1.7 cpm/ug DNA; mean weekly weight ± S.D. ([9]; week 0, control 23 ± 1.5): 23.3 ± 1.6 grams; mean weekly weight ± S.D. ([9]; week 1, control 25.0 ± 1.6): 21.1 ± 1.4 grams; mean weekly weight ± S.D. ([9]; week 2, control 27.0 ± 1.6): 21.9 ± 1.0 grams; mean weekly weight ± S.D. ([9]; week 3, control 27.3 ± 1.6): 23.6 ± 1.5 grams; mean weekly weight ± S.D. ([9]; week 4, control 27.5 ± 1.9): 23.5 ± 1.5 grams
